This is an account of results in ChEMBL document CHEMBL4417628, “Small molecule antagonists of dusp5 and methods of use” (2018).

Positions count from the first letter of the chain named. Activity calls are given as the source filed them. The calls are words filed in the database; no cut-off is given here.

For assay [1], the target named is T1, Dual specificity protein phosphatase 5 (Homo sapiens) (UniProt Q16690).
T1 sequence (whole entry): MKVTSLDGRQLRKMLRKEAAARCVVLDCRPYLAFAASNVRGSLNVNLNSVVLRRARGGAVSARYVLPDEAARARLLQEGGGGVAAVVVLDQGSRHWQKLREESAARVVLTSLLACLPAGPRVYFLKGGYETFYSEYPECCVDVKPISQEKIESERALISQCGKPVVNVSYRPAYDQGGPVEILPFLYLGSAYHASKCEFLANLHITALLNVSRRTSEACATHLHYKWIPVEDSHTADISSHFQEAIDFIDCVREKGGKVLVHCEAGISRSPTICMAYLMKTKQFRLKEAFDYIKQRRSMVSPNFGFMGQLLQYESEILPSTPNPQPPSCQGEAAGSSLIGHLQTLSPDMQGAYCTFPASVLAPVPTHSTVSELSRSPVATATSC
In words: Potency index, ratio of IC50 for NTS to IC50 for test compound for inhibition of full length DUSP5 (unknown origin) assessed as reduction in de-phosphorylation of GST-tagged recombinant phosphorylated ERK2 incubated for 15 mins by SDS-PAGE based immunoblot assay. On the technique in general: Immunoblotting shows a protein as a band on a membrane.

Assay [2] deals with T2, Tyrosine-protein phosphatase non-receptor type 1 (Homo sapiens, UniProt P18031).
T2 sequence (P18031 whole entry): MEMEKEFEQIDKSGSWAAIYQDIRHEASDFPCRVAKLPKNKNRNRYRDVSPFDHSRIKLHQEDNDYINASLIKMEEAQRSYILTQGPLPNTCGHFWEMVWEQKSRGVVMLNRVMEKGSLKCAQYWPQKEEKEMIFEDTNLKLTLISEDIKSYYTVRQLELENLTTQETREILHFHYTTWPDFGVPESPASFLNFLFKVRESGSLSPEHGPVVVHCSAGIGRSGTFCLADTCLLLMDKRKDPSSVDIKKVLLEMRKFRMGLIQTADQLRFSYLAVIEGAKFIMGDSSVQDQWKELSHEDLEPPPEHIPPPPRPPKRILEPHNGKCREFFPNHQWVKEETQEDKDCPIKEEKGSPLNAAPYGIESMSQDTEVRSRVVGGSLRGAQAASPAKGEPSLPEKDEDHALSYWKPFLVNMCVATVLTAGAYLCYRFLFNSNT
The assay can be described thus: Inhibition of PTPN1 (unknown origin) using PNPP substrate incubated for 15 mins relative to control.

Assay [3] relates to T3, Dual specificity protein phosphatase 5 (Homo sapiens), Q16690 [C263S].
T3 sequence (whole entry): T1 sequence (whole entry) with C263S
In words: Binding affinity to N-terminal hexa-histidine-tagged and 15N-labeled DUSP5 C263S mutant (unknown origin) expressed in Escherichia coli BL21 (DE3) at 500 uM by 2D 1H-15N HSQC NMR assay.

Turning to `O=S(=O)([O-])c1cc(O)c2c(S(=O)(=O)[O-])cccc2c1.[Na+].[Na+]`, in assay [1], the Ratio IC50 was 1000. Further, the IC50 result in assay [2] was “Not Active”. Further, the result in assay [3] was Active.
